# Measured values from patent US8288387B2, “Napthalimide-benzimidazole hybrids as potential antitumor agents and process for the preparation thereof” (Council of Scientific & Industrial Research, priority 2008, dated 2012).
# Key:
# UO-31 = experiment: In vitro one dose primary anticancer assay, UO-31; format: cell-based, human; conditions: Renal (UO-31), 10^−5 Molar concentration
# Description: (§1) Anticancer activity: In vitro biological activity studies were carried out at the National Cancer Institute (USA).
# (§2) The compounds 5a-b evaluated for in vitro anticancer activity against sixty human tumour cells derived from nine cancer types (leukemia, non-small-cell lung, colon, CNS, melanoma, ovarian, prostate, and breast cancer) as shown in Table 1. For each compound, dose response curves for each cell line were measured at a minimum of five concentrations at 10 fold dilutions. A protocol of 48 h continuous drug exposure was used and a sulforhodamine B (SRB) protein assay was used to estimate cell viability or growth. The concentration causing 50% cell growth inhibition (GI50), total cell growth inhibition (TGI 0% growth) and 50% cell death (LC50, −50% growth) compared with the control was calculated. […] The MG MID of log TGI and log LC50 have shown similar pattern to the log GI50 MG MID. The other compounds 9a-c evaluated for in vitro one dose anticancer activity against nine human tumor cell panels containing sixty cell lines in percent growth inhibition values are listed in Table 3.
# T-47D [1] = experiment: In vitro one dose primary anticancer assay, T-47D; format: cell-based, human; conditions: Breast (T-47D), 10^−5 Molar concentration
# Description: as §1, §2
# HL-60 = experiment: In vitro one dose primary anticancer assay, HL-60; format: cell-based, human; conditions: Leukemia (HL-60), 10^−5 Molar concentration
# Description: as §1, §2
# SF-295 = experiment: In vitro one dose primary anticancer assay, SF-295; format: cell-based, human; conditions: CNS (SF-295), 10^−5 Molar concentration
# Description: as §1, §2
# OVCAR8 = experiment: In vitro one dose primary anticancer assay, OVCAR8; format: cell-based, human; conditions: Ovarian (OVCAR8), 10^−5 Molar concentration
# Description: as §1, §2
# HS 578T = experiment: NCI in vitro anticancer SRB assay, HS 578T; format: cell-based, human; conditions: Breast Cancer
# Description: as §1, §2
# EKVX = experiment: NCI in vitro anticancer SRB assay, EKVX; format: cell-based, human; conditions: Non-Small Cell Lung Cancer
# Description: as §1, §2
# NCI-H322M = experiment: NCI in vitro anticancer SRB assay, NCI-H322M; format: cell-based, human; conditions: Non-Small Cell Lung Cancer
# Description: as §1, §2
# SK-MEL-28 = experiment: NCI in vitro anticancer SRB assay, SK-MEL-28; format: cell-based, human; conditions: SK-MEL-28, Melanoma
# Description: as §1, §2
# sixty human tumour cells = experiment: In vitro cytotoxicity, mean graph midpoints over all cell lines; format: cell-based; conditions: mean graph midpoint
# Description: as §1, §2
# MCF7 = experiment: NCI in vitro anticancer SRB assay, MCF7; format: cell-based, human; conditions: MCF7, Breast Cancer
# Description: as §1, §2
# SW-620 = experiment: NCI in vitro anticancer SRB assay, SW-620; format: cell-based, human; conditions: SW-620, Colon Cancer
# Description: as §1, §2
# T-47D [2] = experiment: NCI in vitro anticancer SRB assay, T-47D; format: cell-based, human; conditions: Breast Cancer
# Description: as §1, §2
# BT-549 = experiment: NCI in vitro anticancer SRB assay, BT-549; format: cell-based, human; conditions: BT-549, Breast Cancer
# Description: as §1, §2
# KM12 = experiment: NCI in vitro anticancer SRB assay, KM12; format: cell-based, human; conditions: KM12, Colon Cancer
# Description: as §1, §2
# OVCAR-4 = experiment: NCI in vitro anticancer SRB assay, OVCAR-4; format: cell-based, human; conditions: OVCAR-4, Ovarian Cancer
# Description: as §1, §2
# K-562 = experiment: NCI in vitro anticancer SRB assay, K-562; format: cell-based, human; conditions: K-562, Leukemia
# Description: as §1, §2
# MDA-MB-231/ATCC = experiment: NCI in vitro anticancer SRB assay, MDA-MB-231/ATCC; format: cell-based, human; conditions: Breast Cancer
# Description: as §1, §2
# RXF 393 = experiment: NCI in vitro anticancer SRB assay, RXF 393; format: cell-based, human; conditions: RXF 393, Renal Cancer
# Description: as §1, §2
# SF-539 = experiment: NCI in vitro anticancer SRB assay, SF-539; format: cell-based, human; conditions: SF-539, CNS Cancer
# Description: as §1, §2
# U251 = experiment: NCI in vitro anticancer SRB assay, U251; format: cell-based, human; conditions: U251, CNS Cancer
# Description: as §1, §2
# SK-MEL-5 = experiment: NCI in vitro anticancer SRB assay, SK-MEL-5; format: cell-based, human; conditions: SK-MEL-5, Melanoma
# Description: as §1, §2
# 786-0 = experiment: NCI in vitro anticancer SRB assay, 786-0; format: cell-based, human; conditions: 786-0, Renal Cancer
# Description: as §1, §2
# HCT-116 = experiment: NCI in vitro anticancer SRB assay, HCT-116; format: cell-based, human; conditions: HCT-116, Colon Cancer
# Description: as §1, §2
# DU 145 = experiment: NCI in vitro anticancer SRB assay, DU 145; format: cell-based, human; conditions: DU 145, Prostate Cancer
# Description: as §1, §2
# MALME-3M = experiment: NCI in vitro anticancer SRB assay, MALME-3M; format: cell-based, human; conditions: Melanoma
# Description: as §1, §2
# SNB-75 = experiment: NCI in vitro anticancer SRB assay, SNB-75; format: cell-based; conditions: Homo sapiens, SNB-75, CNS Cancer
# Description: as §1, §2
# [3] = log10 of drug concentration causing 50% cell death (−50%)
# [4] = log10 of drug concentration causing total cell growth inhibition (0% growth)
# [5] = log10 of drug molar concentration causing 50% cell growth inhibition
# [6] = Homo sapiens, 48 h drug exposure, SRB
# [7] = Homo sapiens, repeat test values
molecule,measurement,setting,value
2-{4-[4-(4-[4-(6-[4-methylpiperazino]-2-benzimidazolyl)phenoxy]butyl)piperazino]butyl}napthalimide [Compound 9a],% GI (percent growth inhibition),UO-31,85%
same,% GI (percent growth inhibition),T-47D [1],64%
same,% GI (percent growth inhibition),HL-60,84%
same,% GI (percent growth inhibition),SF-295,71%
same,% GI (percent growth inhibition),OVCAR8,77%
2-{4-[4-(4-[4-(6-morpholino-2-benzimidazolyl)phenoxy]butyl)piperazino]butyl}napthalimide [Compound 9b],% GI (percent growth inhibition),UO-31,68%
same,% GI (percent growth inhibition),T-47D [1],50%
same,% GI (percent growth inhibition),HL-60,50%
same,% GI (percent growth inhibition),SF-295,50%
same,% GI (percent growth inhibition),OVCAR8,78%
2-{4-[4-(6-morpholino-2-benzimidazolyl)phenoxy]butyl}naphthalimide [Compound 5b],GI50,"HS 578T; 48 h drug exposure, SRB",990 nM
same,GI50,HS 578T; repeat test values,4680 nM
same,GI50,"EKVX; 48 h drug exposure, SRB",12200 nM
same,GI50,EKVX; repeat test values,25400 nM
same,GI50,"NCI-H322M; 48 h drug exposure, SRB",110 nM
same,GI50,NCI-H322M; repeat test values,40700 nM
same,GI50,"SK-MEL-28; 48 h drug exposure, SRB",1300 nM
same,GI50,SK-MEL-28; repeat test values,1560 nM
same,Log LC50 MG MID,sixty human tumour cells; [3],−4.46
same,Log TGI MG MID,sixty human tumour cells; [4],−4.94
same,Log GI50 MG MID,sixty human tumour cells; [5],−5.54
same,Log GI50 MG MID,sixty human tumour cells; repeated test values,−5.35
same,Log LC50 MG MID,sixty human tumour cells; repeated test values,−4.27
same,Log TGI MG MID,sixty human tumour cells; repeated test values,−4.71
same,GI50,"MCF7; 48 h drug exposure, SRB",3330 nM
same,GI50,MCF7; repeat test values,2560 nM
same,GI50,"SW-620; 48 h drug exposure, SRB",3190 nM
same,GI50,SW-620; repeat test values,4490 nM
same,GI50,"T-47D [2]; 48 h drug exposure, SRB",2200 nM
same,GI50,T-47D [2]; repeat test values,4320 nM
same,GI50,"BT-549; 48 h drug exposure, SRB",1450 nM
same,GI50,BT-549; repeat test values,1540 nM
same,GI50,"KM12; 48 h drug exposure, SRB",1140 nM
same,GI50,KM12; repeat test values,7250 nM
same,GI50,"OVCAR-4; 48 h drug exposure, SRB",1470 nM
same,GI50,OVCAR-4; repeat test values,2210 nM
same,GI50,"K-562; 48 h drug exposure, SRB",2970 nM
same,GI50,K-562; repeat test values,3250 nM
same,GI50,"MDA-MB-231/ATCC; 48 h drug exposure, SRB",2510 nM
same,GI50,MDA-MB-231/ATCC; repeat test values,4250 nM
same,GI50,"RXF 393; 48 h drug exposure, SRB",850 nM
same,GI50,RXF 393; repeat test values,340 nM
same,GI50,"SF-539; 48 h drug exposure, SRB",1700 nM
same,GI50,SF-539; repeat test values,1600 nM
same,GI50,"U251; 48 h drug exposure, SRB",1410 nM
same,GI50,U251; repeat test values,1660 nM
same,GI50,"SK-MEL-5; 48 h drug exposure, SRB",1440 nM
same,GI50,SK-MEL-5; repeat test values,1770 nM
same,GI50,"786-0; 48 h drug exposure, SRB",1210 nM
same,GI50,786-0; repeat test values,1370 nM
same,GI50,"HCT-116; 48 h drug exposure, SRB",1760 nM
same,GI50,"DU 145; 48 h drug exposure, SRB",3270 nM
same,GI50,DU 145; repeat test values,4560 nM
same,GI50,"MALME-3M; 48 h drug exposure, SRB",90 nM
same,GI50,MALME-3M; repeat test values,3340 nM
2-{5-[4-(5-[4-(6-morpholino-2-benzimidazolyl)phenoxy]pentyl)piperazino]pentyl}napthalimide [Compound 9c],% GI (percent growth inhibition),UO-31,96%
same,% GI (percent growth inhibition),T-47D [1],99%
same,% GI (percent growth inhibition),HL-60,97%
same,% GI (percent growth inhibition),SF-295,84%
same,% GI (percent growth inhibition),OVCAR8,89%
"CN1CCN(c2ccc3nc(-c4ccc(OCCCN5C(=O)c6cccc7cccc(c67)C5=O)cc4)[nH]c3c2)CC1 [Compound 5a, 2-{3-[4-(6-[4-methylpiperazino]2-benzimidazolyl)phenoxy]propyl}napthalimide]",GI50,HS 578T; [6],2100 nM
same,GI50,HS 578T; [7],2110 nM
same,GI50,EKVX; [6],1370 nM
same,GI50,EKVX; [7],1830 nM
same,GI50,NCI-H322M; [6],1810 nM
same,GI50,NCI-H322M; [7],1640 nM
same,GI50,SK-MEL-28; [6],1480 nM
same,GI50,SK-MEL-28; [7],1800 nM
same,Log LC50 MG MID,sixty human tumour cells; [3],−4.20
same,Log TGI MG MID,sixty human tumour cells; [4],−4.80
same,Log GI50 MG MID,sixty human tumour cells; [5],−5.34
same,Log GI50 MG MID,sixty human tumour cells; repeated test values,−5.62
same,Log LC50 MG MID,sixty human tumour cells; repeated test values,−4.39
same,Log TGI MG MID,sixty human tumour cells; repeated test values,−5.08
same,GI50,MCF7; [6],1440 nM
same,GI50,MCF7; [7],1500 nM
same,GI50,SW-620; [6],1700 nM
same,GI50,SW-620; [7],1830 nM
same,GI50,"T-47D [2]; Homo sapiens, T47D, 48 h drug exposure, SRB",1540 nM
same,GI50,"T-47D [2]; Homo sapiens, T47D, repeat test values",2660 nM
same,GI50,BT-549; [7],4800 nM
same,GI50,KM12; [6],1720 nM
same,GI50,KM12; [7],2030 nM
same,GI50,OVCAR-4; [6],1580 nM
same,GI50,OVCAR-4; [7],1850 nM
same,GI50,"K-562; Homo sapiens, K562, 48 h drug exposure, SRB",490 nM
same,GI50,"K-562; Homo sapiens, K562, repeat test values",1580 nM
same,GI50,MDA-MB-231/ATCC; [6],1510 nM
same,GI50,MDA-MB-231/ATCC; [7],1410 nM
same,GI50,RXF 393; [7],10000 nM
same,GI50,SF-539; [6],1640 nM
same,GI50,SF-539; [7],1860 nM
same,GI50,"U251; Homo sapiens, U-251, 48 h drug exposure, SRB",1780 nM
same,GI50,"U251; Homo sapiens, U-251, repeat test values",1970 nM
same,GI50,SK-MEL-5; [6],1690 nM
same,GI50,SK-MEL-5; [7],1600 nM
same,GI50,"SNB-75; 48 h drug exposure, SRB",20 nM
same,GI50,SNB-75; repeat test values,1770 nM
same,GI50,786-0; [6],1530 nM
same,GI50,786-0; [7],1740 nM
same,GI50,HCT-116; [6],1760 nM
same,GI50,HCT-116; [7],1640 nM
same,GI50,DU 145; [6],1450 nM
same,GI50,DU 145; [7],1740 nM
same,GI50,MALME-3M; [6],7660 nM
same,GI50,MALME-3M; [7],2560 nM
